US11883407B2, “Medicament for the treatment of chronic cough” (Shionogi & Co., Ltd., priority 2018, dated 2024)

Key:
[1] = Phase I repeat dose study (safety, tolerability); type: in vivo, human
[2] = test system: patients with refractory/unexplained chronic cough; assay: Phase II double-blind cross-over comparative study: cough frequency and Leicester Cough Questionnaire; type: in vivo, human
Experimental: A Phase II double-blind cross-over comparative study was conducted in patients with refractory/unexplained chronic cough.
In patients with refractory/unexplained chronic cough, the placebo-adjusted change from baseline in the number of coughs per hour during daytime (7 am to 7:59 pm, which means right before 8:00 pm) after 2 weeks of administration of the compound represented by Formula (I), and its significance were evaluated. Similarly, the placebo-adjusted change from baseline in the number of coughs per hour in 24 hours after administration of the compound represented by Formula (I) and its significance were also evaluated.
The placebo-adjusted change is defined by the following equation.
The trial was conducted as a placebo-controlled, multicenter, randomized, double-blind, cross-over comparative study. The study consists of a screening phase (1 to 4 weeks), a first treatment phase (15 days), a drug holiday (2 to 3 weeks), a second treatment phase (15 days) and a follow-up phase (1 week).
Subjects (20 females, 11 males, mean age of 50.0 years) were randomly assigned to either the group receiving the compound according to Formula (I) first or the group receiving the placebo first. The subjects in the group receiving the compound according to Formula (I) first received orally tablets containing 150 mg of the compound according to Formula (I) (50 mg, 3 tablets), and the subjects in the group receiving the placebo first received orally placebo tablets (3 tablets), from the day following the first treatment phase once daily in the morning for 2 weeks.
(For the number of coughs per hour during daytime in each of the first and second treatment phases, the mixed effect model was applied, with the common logarithms of the ratio to the baseline after 2 weeks of administration as the responses, the investigational drugs, the administration groups (group receiving the compound represented by Formula (I) first and group receiving the placebo first), and the phases as the fixed effects, the individuals as the random effects, and the common logarithms of the number of coughs per hour at baseline as the covariates.) (Results) A comparison (full analysis population) of the change in the number of coughs per hour in 24 hours is shown in Table 4.
(For the number of coughs per hour in 24 hours in each of the first and second treatment phases, the mixed effect model was applied, with the common logarithms of the ratio to the baseline after 2 weeks of administration as the responses, the investigational drugs, administration groups (group receiving the compound represented by Formula (I) first and group receiving the placebo first), and phases as the fixed effects, the individuals as the random effects, and the common logarithms of the number of coughs per hour at baseline as the covariates.) (Results) A comparison (full analysis population) of the total change in the sum of the three domains of the Leicester Cough Questionnaire [Japanese version] is shown in Table 5.
(For the change from baseline in the total score of the three domains of the Leicester Cough Questionnaire [Japanese version] at the end or discontinuation of each of the first and second treatment phases, the mixed effect model was applied, with the changes from the baseline as the responses, the investigational drugs, phases, and administration groups (group receiving the compound represented by Formula (I) first and group receiving the placebo first) as the fixed effects, the individuals as the random effects, and the total scores of the three domains of the Leicester Cough Questionnaire [Japanese version] at baseline as the covariates.)

clinical = conditions: human, plasma, oral
[3] = Phase I single dose and food effect study (safety, tolerability)
[4] = 150 mg once daily, 2 weeks, from baseline, full analysis population
[5] = 150 mg once daily, 2 weeks, full analysis population

With `C[C@@H](Cn1c(=O)[nH]/c(=N\c2ccc(Oc3ccccn3)cc2)n(Cc2ccc(Cl)cc2)c1=O)C(=O)O` [compound represented by Formula (I), (2S)-3-(3-[(4-Chlorophenyl)methyl]-2,6-dioxo-4-{[4-(pyridin-2-yloxy)phenyl]amino}-3,6-dihydro-1,3,5-triazin-1(2H)-yl)-2-methyl-propanoic acid] the “dysgeusia or any taste-related disorder” value ([1]; 150 and 300 mg once daily for 2 weeks) was “no dysgeusia or any taste-related disorder was observed”, the “deaths, serious adverse events, adverse events leading to discontinuation of administration” value ([1]; any administration group, healthy adult males) was “no deaths, serious adverse events or adverse events leading to discontinuation of administration” and the “Drug differences, total score of the three domains of the Leicester Cough Questionnaire” value ([2]; 150 mg once daily vs placebo) was 1.40. For the same molecule, the “difference between investigational drug groups in total score of the three domains of the Leicester Cough Questionnaire” value ([2]; 150 mg once daily vs placebo, significant difference) was 1.40 points, the “placebo-adjusted rate of decrease in the number of coughs per hour during daytime” value ([2]; 150 mg once daily, 2 weeks) was 31.6% and the “Estimated amount of change, total score of the three domains of the Leicester Cough Questionnaire” value ([2]; 150 mg once daily, 2 weeks, from baseline) was 2.46. The “Estimated rate of change in number of coughs per hour during daytime” value [2, 4] was −54.1%, the “Estimated rate of change in number of coughs per hour in 24 hours” value [2, 4] was −52.6% and the “Rate of change adjusted by placebo, number of coughs per hour during daytime” value [2, 5] was −31.6%. The “Rate of change adjusted by placebo, number of coughs per hour in 24 hours” value [2, 5] was −30.9%, the “placebo-adjusted rate of decrease in the number of coughs per hour in 24 hours” value ([2]; 150 mg once daily, 2 weeks, significant difference) was 30.9% and the concentration at 24 h (clinical; 3 mg) was 15.2 ng/mL. The concentration at 24 h (clinical; 10 mg) was 50.7 ng/mL, the concentration at 24 h (clinical; 30 mg) was 134 ng/mL and the concentration at 24 h (clinical; 100 mg) was 424 ng/mL. The concentration at 24 h (clinical; 300 mg) was 1840 ng/mL, the concentration at 24 h (clinical; 450 mg) was 2680 ng/mL and the “deaths, serious adverse events, adverse events leading to discontinuation of administration” value ([3]; Part A and Part B, healthy adult males) was “no deaths, serious adverse events, or adverse events leading to discontinuation of administration”. For the same molecule, the “taste-related adverse events or side effects” value ([3]; all Phase I studies conducted (single dose/food effect and repeat dose)) was “No taste-related adverse events or side effects were observed” and the “dysgeusia or any taste-related disorder as adverse event” value ([3]; single dose 3, 10, 30, 100, 300 and 450 mg groups) was “no dysgeusia or any taste-related disorder was observed”.
